Like-named read-outs stand apart in the source and are kept apart here.
Key:
Assay type in all cases: cell-based, zebrafish (Danio rerio)
[1] = system: AhR (AhR/ARNT/XRE pathway); assay: AhR-responsive transient dual luciferase reporter gene (DLR) assay in ZFL cells; conditions: zebrafish; for EC50 at 24 h: TCDD exposure, 4PL regression; for IC50 / EC50: BNF exposure
Procedure: (§1) ZFL cells were seeded either into white, clear-bottom 96-well microtiter plates (Corning, New York, USA; for DLR assays) or transparent 96-well microtiter plates (Corning, New York, USA; for viability assays) at a density of 1.5 × 10^5 cells/mL, in 100 μL/well. After 24 h of incubation, cells reached a confluence of about 80%.
(§2) The transient transfection was conducted in a 2-μg transfection reagent to 1 μg plasmid DNA ratio, applying the XHP transfection reagent (Roche, Mannheim, Germany). Specific transfection optimization experiments were reported priory (Lungu-Mitea et al. [2018]). The transient transfection reaction was incubated as a co-transfection in a 10:1 reporter to control ratio (0.9 μg reporter plasmid, 0.1 μg control plasmid) for 30 min, before adding the reaction mixture to the cells. Firefly luciferase-bearing vectors were used as the primary reporter plasmids, and Renilla luciferase-bearing vectors were used for normalization (control plasmid). Ten microliter per well of the transfection reaction mix was added to the cells and incubated for 24 h. Following (Lungu-Mitea and Lundqvist [2020]), cells used in both DLR and viability assays were transiently transfected.
(§3) Prepared aliquots of stock solutions were thawed and further titrated using the nutrition medium supplemented with 5‰ (v/v) DMSO as a solvent. […] Different exposure regimes were applied. […] All potential co-transfection combinations were screened in this initial approach. […] Further, cells transfected with candidate plasmid combinations were subjected to a TCDD exposure regime from 100 pM to 100 nM (0.1, 0.3, 1, 3, 10, 30, 100 nM). Cells were exposed in 100 μL/well of the specifically spiked nutrition medium. Solvent controls (negative controls) were conducted in six replicates for every specific experiment.
(§4) After 24 h of exposure to AhR-agonists, cells on white 96-well microtiter plates were lysed in 20-μL passive lysis buffer (PLB; Promega, Madison, USA), and quantitative AhR-dependent luminescence was measured via Dual-Luciferase® Reporter Assay (DLR; Promega, Madison, USA), according to the manufacturer’s protocol using an auto-injecting Infinite M1000 microplate reader (Tecan, Männedorf, Switzerland), following a flash luminescence protocol. The luciferase activity was normalized to transfection efficiency (Firefly raw light unit readout divided by Renilla raw light unit readout) and further expressed as fold change compared to the non-treated controls.
(§5) In terms of the NOEC/LOEC analyses, for both approaches (DLR and viability), mean background values (blanks) were subtracted from the raw values, and the data was computed as fold induction in relation to the negative controls. Means of every experiment were pooled (experimental unit n = 3–5; observational unit N = 9–15). Normality was tested by Shapiro–Wilk and Kolmogorov–Smirnov tests (both significance level alpha = 0.05) and analyzed graphically via normal-qq-plot. Non-normal data were log-transformed and re-analyzed. Given normality, statistically differing significance in the output signal from the negative controls was assessed via one-way ANOVA, followed by Dunnett’s post hoc test (for multiple comparisons vs. control). Residuals were graphically analyzed by quantile–quantile plot (actual vs. predicted residuals), homoscedasticity plot (absolute residuals vs. fitted), and residual plot (residuals vs. fitted) to ensure ANOVA criteria were met. Further, Brown–Forsythe and Bartlett’s tests were conducted to check for the residuals’ homoscedasticity and normality. Beyond statistical significance, for all viability tests, a threshold of 80% as compared to the negative control (corresponding 0.8) was determined as biologically significant and marked with a dotted red line within all respective graphs. […]

[2] = system: AhR transcription factor activation (AhR/ARNT/XRE pathway); assay: as above; conditions: for EC20 (normalized): 4PL regression
Procedure: as §1, §2, §3, §4, §5

ZFL cells = assay: MTS/BCA-multiplex viability assay on transiently transfected ZFL cells
Procedure: In parallel to the DLR assays, MTS/BCA-multiplex assays were conducted on identically treated cells. The MTS/BCA-multiplex assay, which is described in detail in (Lungu-Mitea et al. [2021]), scores NADPH-turnover and total protein amount as apical endpoints of cell viability or cytotoxicity. After 24 h exposure, the spiked nutrition medium was discharged, cells were washed once in 100 µL/well PBS, and 100 µL/well Earle’s Balanced Salt Solution (EBSS; Gibco, Paisley, UK) was added. MTS-based CellTiter 96® AQueous One Solution Cell Proliferation Assay (Promega, Madison, USA) was conducted following the manufacturer’s protocol. Seventeen percent (v/v) MTS reagent were added to the wells. After 2 h of incubation at 28 °C and atmospherical CO2, formazan product turnover absorbance was measured at 490 nm using an Infinite M1000 microplate reader. Afterwards, EBSS and MTS reagents were removed. Cells were washed once in 100 µL/well PBS and lysed in 20-µL PLB at RT for 30 min. Bicinchoninic Acid Protein Assay (BCA, Sigma-Aldrich, St. Louis, USA) was conducted following the manufacturer’s protocol. One hundred eighty microliters of BCA-reagent was added to every well, plates were agitated shortly, and incubated for 20 min at 60 °C. After cooling down for 15 min at RT, absorbance was measured at 562 nm using an Infinite M1000 microplate reader.
In terms of the NOEC/LOEC analyses, for both approaches (DLR and viability), mean background values (blanks) were subtracted from the raw values, and the data was computed as fold induction in relation to the negative controls. Means of every experiment were pooled (experimental unit n = 3–5; observational unit N = 9–15). Normality was tested by Shapiro–Wilk and Kolmogorov–Smirnov tests (both significance level alpha = 0.05) and analyzed graphically via normal-qq-plot. Non-normal data were log-transformed and re-analyzed. Given normality, statistically differing significance in the output signal from the negative controls was assessed via one-way ANOVA, followed by Dunnett’s post hoc test (for multiple comparisons vs. control). Residuals were graphically analyzed by quantile–quantile plot (actual vs. predicted residuals), homoscedasticity plot (absolute residuals vs. fitted), and residual plot (residuals vs. fitted) to ensure ANOVA criteria were met. Further, Brown–Forsythe and Bartlett’s tests were conducted to check for the residuals’ homoscedasticity and normality. Beyond statistical significance, for all viability tests, a threshold of 80% as compared to the negative control (corresponding 0.8) was determined as biologically significant and marked with a dotted red line within all respective graphs.

## Clc1cc2c(cc1Cl)Oc1cc(Cl)c(Cl)cc1O2 [TCDD, 2,3,7,8-tetrachlorodibenzo-p-dioxin]
[1]; setup (a) pGL4.43 + pGL4.70, read-out: EC50 (normalized)
  EC50 at 24 h: 0.612 nM
[1]; setup (a) pGL4.43 + pGL4.70, read-out: EC50 (relative; non-normalized)
  EC50 at 24 h: 0.595 nM
[1]; setup (b) pGL4.43 + pRL-null, read-out: EC50 (normalized)
  EC50 at 24 h: 2.7 nM
[1]; setup (b) pGL4.43 + pRL-null, read-out: EC50 (relative; non-normalized)
  EC50 at 24 h: 1.31 nM
[1]; setup (c) pGudLuc7.5 + pRL-null[zfEF1aPro], read-out: EC50 (normalized)
  EC50 at 24 h: 1.15 nM
[1]; setup (c) pGudLuc7.5 + pRL-null[zfEF1aPro], read-out: EC50 (relative; non-normalized)
  EC50 at 24 h: 1.13 nM
[1]; setup (d) pGL4.43 + pRL-null[zfEF1aPro], read-out: EC50 (normalized)
  EC50 at 24 h: 1.45 nM
[1]; setup (d) pGL4.43 + pRL-null[zfEF1aPro], read-out: EC50 (relative; non-normalized)
  EC50 at 24 h: 0.877 nM
[1]; setup (e) pGudLuc7.5 + pRL-null, read-out: EC50 (normalized)
  EC50 at 24 h: 0.661 nM
[1]; setup (e) pGudLuc7.5 + pRL-null, read-out: EC50 (relative; non-normalized)
  EC50 at 24 h: 0.685 nM
[1]; setup (f) pGudLuc7.5 + pGL4.70, read-out: EC50 (normalized)
  EC50 at 24 h: 1.26 nM
[1]; setup (f) pGudLuc7.5 + pGL4.70, read-out: EC50 (relative; non-normalized)
  EC50 at 24 h: 1.07 nM
[2]; TCDD exposure 24 h, setup (d) pGL4.43 + pRL-null[zfEF1aPro]
  LOEC: 0.1 nM
[2]; TCDD exposure 24 h, setup (e) pGudLuc7.5 + pRL-null
  LOEC: 1 nM
[2]; TCDD exposure 24 h, setup (f) pGudLuc7.5 + pGL4.70
  LOEC: 1 nM
[2]; TCDD exposure, all recorded within this range
  EC20, all co-transfection setups: ~0.2 nM
[2]; TCDD exposure, pGudluc7.5 + pRL-null[zfEF1aPro] (Fig. 5A)
  plateau of relative induction: approximately 26 fold
[2]; TCDD exposure, setup (d) pGL4.43 + pRL-null[zfEF1aPro]
  EC20 (normalized): 0.282 nM
[2]; TCDD exposure, setup (e) pGudLuc7.5 + pRL-null
  EC20 (normalized): 0.245 nM
[2]; TCDD exposure, setup (f) pGudLuc7.5 + pGL4.70
  EC20 (normalized): 0.204 nM
ZFL cells; TCDD 0.1-100 nM, pGudluc7.5 + pRL-null[zfEF1aPro] (Fig. S7)
  cytotoxicity (MTS): none

## O=c1cc(-c2ccccc2)oc2ccc3ccccc3c12 [BNF, β-naphthoflavone]
[1]; all tested setups, see Table 2, read-out: IC50, range over co-transfection setups
  IC50: […]
[1]; approximate, regarding the regression model used, read-out: IC50, range over co-transfection setups
  IC50: […]
[1]; setup (a) pGL4.43 + pGL4.70, bell-shaped regression, normalized induction, read-out: EC50 (normalized)
  EC50: […]
[1]; setup (a) pGL4.43 + pGL4.70, bell-shaped regression, normalized induction, read-out: IC50 (normalized)
  IC50: […]
[1]; setup (a) pGL4.43 + pGL4.70, bell-shaped regression, relative induction, read-out: EC50 (relative; non-normalized)
  EC50: […]
[1]; setup (a) pGL4.43 + pGL4.70, bell-shaped regression, relative induction, read-out: IC50 (relative; non-normalized)
  IC50: […]
[1]; setup (b) pGL4.43 + pRL-null, bell-shaped regression, normalized induction, read-out: EC50 (normalized)
  EC50: […]
[1]; setup (b) pGL4.43 + pRL-null, bell-shaped regression, normalized induction, read-out: IC50 (normalized)
  IC50: […]
[1]; setup (b) pGL4.43 + pRL-null, bell-shaped regression, relative induction, read-out: EC50 (relative; non-normalized)
  EC50: […]
[1]; setup (b) pGL4.43 + pRL-null, bell-shaped regression, relative induction, read-out: IC50 (relative; non-normalized)
  IC50: […]
[1]; setup (c) pGudLuc7.5 + pRL-null[zfEF1aPro], bell-shaped regression, normalized induction, read-out: EC50 (normalized)
  EC50: […]
[1]; setup (c) pGudLuc7.5 + pRL-null[zfEF1aPro], bell-shaped regression, normalized induction, read-out: IC50 (normalized)
  IC50: […]
[1]; setup (c) pGudLuc7.5 + pRL-null[zfEF1aPro], bell-shaped regression, relative induction, read-out: EC50 (relative; non-normalized)
  EC50: […]
[1]; setup (c) pGudLuc7.5 + pRL-null[zfEF1aPro], bell-shaped regression, relative induction, read-out: IC50 (relative; non-normalized)
  IC50: […]
[2]; 300 nM BNF, pGudluc7.5 with non-viral promoter normalization vectors (Fig. 1C + D)
  effect on AhR-related signal: […]
[2]; 1 µM BNF, pGL4.43 + pGL4.70 and pGL4.43 + pRL-null
  effect on AhR-related signal at highest exposure concentration: […]
[2]; BNF at 10 nM, pGL4.43 + pRL-null[zfEF1aPro] (Fig. S5)
  maximum induction of AhR-related luminescence: 3.9 fold
[2]; BNF exposure
  concentration beyond which AhR-related signal inhibition is encountered: […]
[2]; BNF exposure, pGL4.43 + pRL-null[zfEF1aPro] (Fig. S5)
  LOEC: […]
[2]; BNF exposure, setup (a) pGL4.43 + pGL4.70, bell-shaped regression, normalized induction
  EC50: 2.95 nM
[2]; BNF screening, co-transfection with pGudluc7.5 (Figs. 1C + D, 2, S4)
  induction of AhR-related luciferase signal: no overall statistically significant induction
[2]; BNF screening, pGL4.43 + pGL4.74, pGL4.43 + pRL-SV40, pGL4.43 + pGL4.73 (viral promoters)
  induction of AhR-related luciferase response: […]
ZFL cells; BNF 3-300 nM, pGL4.43 with any viral promoter-bearing vector (Fig. S3)
  statistically significant cytotoxicity: No statistically significant cytotoxicity
ZFL cells; BNF highest exposure concentration, pGL4.43 + pRL-SV40 and pRL-CMV, at least one endpoint (Fig. S3D + F)
  cytotoxicity by biological threshold (0.8): depicted cytotoxicity by biological threshold definition
ZFL cells; BNF highest exposure concentration, pGudluc7.5 + CMV and SV40-bearing vectors, at least one apical endpoint (Fig. S4C-F)
  cytotoxicity (statistical or biological significance): Cytotoxicity was recorded
ZFL cells; BNF, entire concentration range up to 1 µM, non-viral promoter setups (Fig. 1)
  statistically significant cytotoxicity (MTS and BCA endpoints): no statistically significant cytotoxicity
ZFL cells; BNF, pGL4.37 + pRL-CMV transfected ZFL cells
  concentration from which statistically significant cytotoxicity was recorded (MTS): […]
ZFL cells; BNF, pGudluc7.5 + pRL-null[zfEF1aPro]
  concentration with statistically significant cytotoxicity (MTS): […]
